Structures are written as SMILES.

The record followed here is ChEMBL document CHEMBL2057083, “Development of new carbon-11 labelled radiotracers for imaging GABAA- and GABAB-benzodiazepine receptors” (Bioorg Med Chem, 2012).

Common to all, as to assay type: ADME, organism-based
The subject of data set [1] is Rattus norvegicus. Put plainly: Biodistribution in Sprague-Dawley rat cortex (front) at 37 MBq, iv measured 60 mins post injection. The conditions noted are these: in vivo, 1 h.
For data set [2], the system named is Brain. Put plainly: Biodistribution in Sprague-Dawley rat rest of brain at 37 MBq, iv measured 15 mins post injection. The note with it: in vivo, 0.25 h.
Data set [3] deals with Rattus norvegicus. In words: Biodistribution in Sprague-Dawley rat cortex (rest) at 37 MBq, iv measured 60 mins post injection. The conditions noted are these: in vivo, 1 h.
Data set [4] deals with Rattus norvegicus. Put plainly: Biodistribution in Sprague-Dawley rat cortex (front) pretreated with unlabeled compound at 0.1 mg/kg, ip administered 30 mins before labeled compound treatment at 37 MBq, iv measured 15 mins post infection (reference value: 0.42 +/- 0.04%ID/g). Further details: dose 0.1 mg/kg. The note with it: in vivo, 0.25 h.
Data set [5] has as its system Striatum. Put plainly: Biodistribution in Sprague-Dawley rat striatum at 37 MBq, iv measured 60 mins post injection. The conditions noted are these: in vivo, 1 h.
Data set [6] is described as follows: Biodistribution in Sprague-Dawley rat hippocampus pretreated with unlabeled compound at 0.1 mg/kg, ip administered 30 mins before labeled compound treatment at 37 MBq, iv measured 15 mins post injection (reference value: 0.22 +/- 0.22 %ID/g). Also noted: dose 0.1 mg/kg. The note with it: read-out: Drug uptake.
Data set [7] can be described thus: Biodistribution in Sprague-Dawley rat blood pretreated with unlabeled compound at 10 mg/kg, ip administered 30 mins before labeled compound treatment at 37 MBq, iv measured 15 mins post injection (0.11 +/- 0.01 %ID/g). Also noted: dose 10 mg/kg. The conditions noted are these: read-out: Drug uptake.
The test system of data set [8] is Striatum. In words: Biodistribution in Sprague-Dawley rat striatum at 37 MBq, iv measured 30 mins post injection. The note with it: in vivo, 0.5 h.
The nature of data set [9]: Metabolic stability of the compound in Sprague-Dawley rat brain assessed as compound remaining at 37 MBq, iv measured after 15 mins. The conditions noted are these: read-out: Stability.
Data set [10] relates to Striatum. Put plainly: Biodistribution in Sprague-Dawley rat striatum pretreated with unlabeled compound at 0.1 mg/kg, ip administered 30 mins before labeled compound treatment at 37 MBq, iv measured 15 mins post injection (reference value: 0.13 +/- 0.22 %ID/g). Further details: dose 0.1 mg/kg, route intravenous. The conditions noted are these: in vivo, 0.25 h.
Data set [11] relates to Cerebellum. In words: Biodistribution in Sprague-Dawley rat cerebellum at 37 MBq, iv measured 30 mins post injection. The note with it: in vivo, 0.5 h.
The nature of data set [12]: Biodistribution in Sprague-Dawley rat hippocampus pretreated with unlabeled compound at 5 mg/kg, ip administered 30 mins before labeled compound treatment at 37 MBq, iv measured 15 mins post injection (reference value: 0.22 +/- 0.22 %ID/g). Also noted: dose 5 mg/kg. The conditions noted are these: read-out: Drug uptake.
Data set [13] has as its system Rattus norvegicus. Put plainly: Biodistribution in Sprague-Dawley rat cortex (rest) at 37 MBq, iv measured 5 mins post injection. The note with it: in vivo.
For data set [14], the system named is Rattus norvegicus. Put plainly: Biodistribution in Sprague-Dawley rat cortex (front) at 37 MBq, iv measured 5 mins post injection. The note with it: in vivo.

For `[11CH3]Oc1ncccc1-c1cccc2c(N)c3c(nc12)CN(C1CCC1)C3=O`, the Drug uptake in data set [1] is 0.21 % ID/g; in [2], 0.27 % ID/g; in data set [3] it was 0.16 % ID/g; in data set [4], 0.36 % ID/g; in data set [5], 0.06 % ID/g; in [8] it was 0.15 % ID/g. For the same molecule, the Drug uptake was determined as 0.14 % ID/g in data set [10], 0.26 % ID/g in data set [11], 0.45 % ID/g in [13] and 0.47 % ID/g in data set [14]. The tissue uptake at 0.25 h is 0.17 %ID/g in [6], 0.12 %ID/g in data set [7] and 0.11 %ID/g in [12]. Besides, in data set [9], the remaining at 0.25 h was greater than 99%.
